Results published in US8785460B2, “Tricyclic compounds and use thereof” (Takeda Pharmaceutical Company Limited, priority 2008, dated 2014).

Assays:
human CRF1 receptor = biological target: T1, human CRF1 receptor (Homo sapiens, UniProt P34998); experiment: Measurement of CRF Binding Inhibitory Rate (receptor binding experiment with 125I-CRF); conditions: human CRF1 receptor expressing CHO cellular membrane fraction, 50 pM 125I-CRF, room temperature 1.5 hr, 0.05 nM to 10 μM of compound; read-out: IC50 values (CRF binding inhibition)
T1 construct: expressed in transfected cells; host or cells: CHO cells (membrane fraction)
T1 sequence (P34998 24-415): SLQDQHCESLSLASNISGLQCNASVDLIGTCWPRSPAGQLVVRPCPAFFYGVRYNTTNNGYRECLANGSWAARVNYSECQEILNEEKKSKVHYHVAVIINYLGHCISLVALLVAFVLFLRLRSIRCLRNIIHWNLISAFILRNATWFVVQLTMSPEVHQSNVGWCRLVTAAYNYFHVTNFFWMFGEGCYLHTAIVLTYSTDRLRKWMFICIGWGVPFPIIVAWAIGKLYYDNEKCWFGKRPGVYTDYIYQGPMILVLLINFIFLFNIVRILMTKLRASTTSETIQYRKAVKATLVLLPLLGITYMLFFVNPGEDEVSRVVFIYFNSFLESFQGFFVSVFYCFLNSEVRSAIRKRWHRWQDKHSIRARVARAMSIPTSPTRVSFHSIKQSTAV

SMILES | IC50 (human CRF1 receptor) | melting point
COc1nc(C)c(N2CCCn3c2nc2c(Cl)ccc(C(O)(C4CC4)C4CC4)c23)c(C)n1 [Example 188, [9-Chloro-1-(2-methoxy-4,6-dimethylpyrimidin-5-yl)-1,2,3,4-tetrahydropyrimido[1,2-a]benzimidazol-6-yl](dicyclopropyl)methanol] | < 1000 nM | 220 to 221 °C
CCC(CCOC)c1ccc(Cl)c2nc3n(c12)CCCN3c1ccc(Cl)cc1Cl (centres unmarked) [Example 453, 9-Chloro-1-(2,4-dichlorophenyl)-6-(1-ethyl-3-methoxypropyl)-1,2,3,4-tetrahydropyrimido[1,2-a]benzimidazole] | < 1000 nM | 144 to 146 °C
CC(C)(O)c1ccc(Cl)c2nc3n(c12)CCCN3c1ccc(Cl)cc1Cl [Example 106, 2-[9-Chloro-1-(2,4-dichlorophenyl)-1,2,3,4-tetrahydropyrimido[1,2-a]benzimidazol-6-yl]propan-2-ol] | < 1000 nM | 216 to 218 °C
CC/C(=N/OC)c1ccc(Cl)c2nc3n(c12)CCCN3c1ccc(Cl)cc1Cl [Example 122, (1Z)-1-[9-Chloro-1-(2,4-dichlorophenyl)-1,2,3,4-tetrahydropyrimido[1,2-a]benzimidazol-6-yl]propan-1-one O-methyloxime] | < 1000 nM | 144 to 145 °C
COc1nc(C)nc(OC)c1N1CCCn2c1nc1c(Cl)ccc(C(O)(C3CC3)C3CC3)c12 [Example 174, [9-Chloro-1-(4,6-dimethoxy-2-methylpyrimidin-5-yl)-1,2,3,4-tetrahydropyrimido[1,2-a]benzimidazol-6-yl](dicyclopropyl)methanol] | < 1000 nM | 204 to 205 °C
CCC(CC)c1ccc(Cl)c2nc3n(c12)CCCCN3c1c(C)cc(Cl)cc1OC [Example 56] | < 1000 nM | 196 to 198 °C
COC(c1ccc(Cl)c2nc3n(c12)CCCN3c1ccc(Cl)cc1C(F)(F)F)C1CC1 (centres unmarked) [Example 134, 9-Chloro-1-[4-chloro-2-(trifluoromethyl)phenyl]-6-[cyclopropyl(methoxy)methyl]-1,2,3,4-tetrahydropyrimido[1,2-a]benzimidazole] | < 1000 nM | 208 to 209 °C
CCC(O)c1ccc(Cl)c2nc3n(c12)CCCN3c1c(Cl)cc(Cl)cc1Cl (centres unmarked) [Example 391, 1-[9-Chloro-1-(2,4,6-trichlorophenyl)-1,2,3,4-tetrahydropyrimido[1,2-a]benzimidazol-6-yl]propan-1-ol] | < 1000 nM | 213 to 214 °C
CCC(CC)c1ccc(Cl)c2nc3n(c12)CCCCN3c1ccc(Cl)cc1 [Example 23, 10-Chloro-1-(4-chlorophenyl)-7-(1-ethylpropyl)-2,3,4,5-tetrahydro-1H-[1,3]diazepino[1,2-a]benzimidazole] | < 1000 nM | 133 to 135 °C
COc1ccc(N2CCCn3c2nc2c(Cl)ccc(C(O)(C4CC4)C4CC4)c23)c(C)c1 [Example 354, [9-Chloro-1-(4-methoxy-2-methylphenyl)-1,2,3,4-tetrahydropyrimido[1,2-a]benzimidazol-6-yl](dicyclopropyl)methanol] | < 1000 nM | 181 to 182 °C
Cc1nc(OC(C)C)nc(C)c1N1CCCn2c1nc1c(Cl)ccc(C(OC(F)F)C(F)(F)F)c12 (centres unmarked) [Example 211, 9-Chloro-6-[1-(difluoromethoxy)-2,2,2-trifluoroethyl]-1-[4,6-dimethyl-2-(1-methylethoxy)pyrimidin-5-yl]-1,2,3,4-tetrahydropyrimido[1,2-a]benzimidazole] | < 1000 nM | 227 to 230 °C
OC(c1ccc(Cl)c2nc3n(c12)CCCN3c1ccc(Cl)cc1Cl)C1CC1 (centres unmarked) [Example 113, [9-Chloro-1-(2,4-dichlorophenyl)-1,2,3,4-tetrahydropyrimido[1,2-a]benzimidazol-6-yl](cyclopropyl)methanol] | < 1000 nM | 223 to 224 °C
CCC(CC)c1ccc(Cl)c2nc3n(c12)CCN3c1ccc(Cl)cc1Cl [Example 3, 8-Chloro-1-(2,4-dichlorophenyl)-5-(1-ethylpropyl)-2,3-dihydro-1H-imidazo[1,2-a]benzimidazole] | < 1000 nM | 171 to 173 °C
COC(c1ccc(Cl)c2nc3n(c12)CCCN3c1ccc(Cl)cc1Cl)(C1CC1)C1CC1 [Example 111, 9-Chloro-1-(2,4-dichlorophenyl)-6-[dicyclopropyl(methoxy)methyl]-1,2,3,4-tetrahydropyrimido[1,2-a]benzimidazole] | < 1000 nM | 99 to 100 °C
Cc1cc(Cl)cc(Cl)c1N1CCn2c1nc1c(Cl)ccc(C(O)(C3CC3)C3CC3)c12 [Example 426, [8-Chloro-1-(2,4-dichloro-6-methylphenyl)-2,3-dihydro-1H-imidazo[1,2-a]benzimidazol-5-yl](dicyclopropyl)methanol] | < 1000 nM | 193 to 196 °C
CCC(OC(=O)CS(C)(=O)=O)c1ccc(Cl)c2nc3n(c12)CCCN3c1ccc(Cl)cc1Cl (centres unmarked) [Example 433, 1-[9-Chloro-1-(2,4-dichlorophenyl)-1,2,3,4-tetrahydropyrimido[1,2-a]benzimidazol-6-yl]propyl (methylsulfonyl) acetate] | < 1000 nM | 187 to 189 °C
CCC(NC(=O)C(F)F)c1ccc(Cl)c2nc3n(c12)CCCN3c1ccc(Cl)cc1Cl (centres unmarked) [Example 463, N-{1-[9-Chloro-1-(2,4-dichlorophenyl)-1,2,3,4-tetrahydropyrimido[1,2-a]benzimidazol-6-yl]propyl}-2,2-difluoroacetamide] | < 1000 nM | 248 to 250 °C
Cc1cc(C#N)ccc1N1CCCn2c1nc1c(Cl)ccc(C(OC(F)F)C(F)(F)F)c12 (centres unmarked) [Example 325, 4-{9-chloro-6-[1-(difluoromethoxy)-2,2,2-trifluoroethyl]-3,4-dihydropyrimido[1,2-a]benzimidazol-1(2H)-yl}-3-methylbenzonitrile] | < 1000 nM | 195 to 197 °C
Cc1nc(C(C)C)nc(C)c1N1CCCn2c1nc1c(Cl)ccc(C(OC(F)F)C(F)(F)F)c12 (centres unmarked) [Example 214, 9-Chloro-6-[1-(difluoromethoxy)-2,2,2-trifluoroethyl]-1-[4,6-dimethyl-2-(1-methylethyl)pyrimidin-5-yl]-1,2,3,4-tetrahydropyrimido[1,2-a]benzimidazole] | < 1000 nM | 204 to 206 °C
CCC(CC)c1ccc(Cl)c2nc3n(c12)CCCCN3c1cnc(C(N)=O)cc1C [Example 61, 5-[10-Chloro-7-(1-ethylpropyl)-2,3,4,5-tetrahydro-1H-[1,3]diazepino[1,2-a]benzimidazol-1-yl]-4-methylpyridine-2-carboxamide] | < 1000 nM | 267 to 269 °C
OC(c1ccc(Cl)c2nc3n(c12)CCCN3c1ccc(Cl)cc1C(F)(F)F)C1CC1 (centres unmarked) [Example 132, {9-Chloro-1-[4-chloro-2-(trifluoromethyl)phenyl]-1,2,3,4-tetrahydropyrimido[1,2-a]benzimidazol-6-yl}(cyclopropyl)methanol] | < 1000 nM | 224 to 225 °C
CCC(CC)(OC)c1ccc(Cl)c2nc3n(c12)CCCN3c1ccc(Cl)cc1C(F)(F)F [Example 130, 9-Chloro-1-[4-chloro-2-(trifluoromethyl)phenyl]-6-(1-ethyl-1-methoxypropyl)-1,2,3,4-tetrahydropyrimido[1,2-a]benzimidazole] | < 1000 nM | 172 to 173 °C
